Where no end group is shown, it is not given here.
Columns and labels:
Assay type in all cases: cell-based
[1] = tested on: Acinetobacter genosp. 3 ATCC 19004; assay: micro-dilution assay (MBC, LD90)
Experimental: (§1) The anti-bacterial activity of hβD2 was tested by a micro-dilution assay. Bacteria and fungi were streaked from a glycerol stock onto a Brain Heart Infusion (BHI) agar plate (3.7% w/v BHI Bouillon, 1.5% w/v Agar), grown overnight at 37° C. and 30° C., respectively and subsequently used to inoculate 40 ml of 3.7% w/v BHI Bouillon without any antibiotics in 100 ml flasks. Fresh cells were harvested by centrifugation at 16000 rpm for 10 min and washed twice with 10 mM sodium phosphate buffer, pH 7.2. The optical density was adjusted to 10^4 cells/ml. For anti-bacterial testing hβD2 was incubated in one well of a microtiter plate containing 100 μl of the bacterial suspension. Therefore, ten microlitres of hβD2 solution with a range of final concentrations tested from 0.0125 up to and including 100 mg/l was added to the bacterial suspension and incubated at 37° C. and 30° C., respectively for 2 h before colony forming units were determined. Colony forming units (CFU) were determined after plating 100 μl of a 1:100 dilution of the bacterial suspension on petri dishes with BHI medium and incubating them overnight at 37° C. For every group of the hβD2 added samples and the controls, 5 independent anti-bacterial assays were performed. A control (NC) of bacterial growth was examined for every independent assay. The number of CFU on the control (consisting of a single petri dish) was set to 0% bactericidal activity. The reduction in the CFU resulting from the anti-bacterial activity of hβD2 was related to the absolute CFU of the control within every independent assay. This value, given as a percentage of the bacterial “killing” activity, was used to describe the antibacterial activity. This kind of normalisation of the antibacterial data was performed for every experimental group.
(§2) The antibacterial activity of hβD2 were given either as minimum bactericidal concentration (MBC), i.e., the minimum concentration of hβD2 in μg/ml which is required to kill 99.9% of the bacteria or fungi or as lethal dose (LD90), i.e., the concentration of hβD2 in μg/ml which is lethal for 90% of bacteria or fungi.

[2] = tested on: Brevundimonas diminuta ATCC 11568; assay: micro-dilution assay (MBC, LD90)
Experimental: as §1, §2

[3] = tested on: E. coli (ESBI 4) Va 10866/02 (wild-type); assay: micro-dilution assay (MBC, LD90)
Experimental: as §1, §2

[4] = tested on: Staphylococcus aureus ATCC 43300 (MRSA); assay: micro-dilution assay (MBC, LD90)
Experimental: as §1, §2

[5] = tested on: Streptococcus pyogenes ATCC 12344; assay: micro-dilution assay (MBC, LD90)
Experimental: as §1, §2

[6] = tested on: Yersinia enterococcus NCTC 11174; assay: micro-dilution assay (MBC, LD90)
Experimental: as §1, §2

[7] = tested on: Escherichia coli strain DB3.1; assay: micro-dilution assay of coated titanium pins and peptide controls (bacterial killing, CFU)
Experimental: In a first experiment 10 μg of hβD2 was coated to three different SAM Hexadecyltrimethoxysilane (SAM 1), Dimethoxymethyloctylsilane (SAM 2), and oxidized Allyltrimethoxysilane (SAM 3) of the modified titanium pins. The anti-bacterial activity of the hβD2-coated pins was tested by a micro-dilution assay. Therefore, Escherichia coli strain DB3.1 (Invitrogen, Cat. No. 11782-018) was used. E. coli was streaked from a glycerol stock onto a Brain Heart Infusion (BHI) agar plate (3.7% (w/v) BHI Bouillon, 1.5% (w/v) Agar), grown overnight at 37° C. and subsequently used to inoculate 40 ml of 3.7% (w/v) BHI Bouillon without any antibiotics in 100 ml flasks. Fresh cells were harvested by centrifugation at 16000 rpm for 10 min and washed twice with 10 mM sodium phosphate buffer, pH 7.2. The optical density was adjusted to 10^4 cells/ml. For anti-bacterial testing, a single pin coated with hβD2 was incubated in one well of a microtiter plate containing 100 μl of the bacterial suspension.
Functionalized titanium pins without hβD2 served as negative controls (SAM1-n, SAM2-n, SAM3-n, SAM4::Col-NHS-n, SAM4::Col-Glu-n). In addition, 5 independent control reactions consisting of hβD2 in a final amount of 0 (NC), 0.02 (PC1), 0.2 (PC2), 2 (PC3) and 10 (PC4) μg were examined in parallel. To determine the specificity of the anti-bacterial activity of hβD2, 10 μl (10 μg/ml in PBS) of polyclonal monospecific anti-hβD2 antibodies were co-incubated with 10 μg of hβD2 and bacterial cells (Table I, PC4/ab).
The microtiter plates were incubated for 2 h at 37° C. The kinetic studies were performed by replacing the bacterial suspension, after 2 h of cultivation with a freshly pre-cultured E. coli solution, which contained the same bacterial concentration, and cultivating for another 2 h and so on. Colony forming units (CFU) were determined after plating 100 μl of a 1:100 dilution of the bacterial suspension on petri dishes with BHI medium and incubating them overnight at 37° C. For every group of the functionalized titanium pins and the controls, 5 independent anti-bacterial assays were performed. A control (NC) of bacterial growth was examined for every independent assay. The number of CFU on the control (consisting of a single petri dish) was set to 0% bactericidal activity. The reduction in the CFU resulting from the anti-bacterial activity of hβD2 was related to the absolute CFU of the control within every independent assay. This value, given as a percentage of the bacterial “killing” activity, was used to describe the antibacterial activity. This kind of normalisation of the antibacterial data was performed for every experimental group.
To examine the release behavior of hβD2 that is adsorbed by different SAM modified titanium pins a time kinetic experiment was performed. The experiment was performed analogous to Example 2. For this experiment 80 μg of hβD2 was adsorbed to three different SAMs Hexadecyltrimethoxysilane (SAM1), Dimethoxymethyloctylsilane (SAM2), and oxidized Allyltrimethoxysilane (SAM3) of the modified titanium pins.
Since it is known that collagen has a positive impact on wound healing, functionalised titanium pins with collagen were investigated. Two different cross-linking strategies for collagen on SAM3 and SAM4 were applied as described in Example 1: (i) a covalently binding strategy with the NHS/EDC cross-linking system, and (ii) the use of glutaraldehyde. Successful binding of collagen was monitored by collagen-specific DirectRed staining (as described in Example 1). […] Additionally 80 μg hβD2 was adsorbed to collagen functionalized SAM3 and SAM4 modified titanium pins, respectively. For monitoring the antibacterial activity of the bio-coated pins the experiment was performed analogous to Example 3. […]

## human β-defensin-2 (GIGDPVTCLKSGAICHPVFCPRRYKQIGTCGLPGTKCCKKP; ends and bridges not checked; cysteine pairing not given here) [hβD2, recombinant hβD2]
[1]
  LD 90 = μg/ml 90% killing: 0.2 µg/mL
  MBC = μg/ml 99.9% killing: 0.78 µg/mL
[2]
  LD 90 = μg/ml 90% killing: 6.25 µg/mL
  MBC = μg/ml 99.9% killing: 12.5 µg/mL
[3]
  LD 90 = μg/ml 90% killing: 3.125 µg/mL
  MBC = μg/ml 99.9% killing: 12.5 µg/mL
[4]
  LD 90 = μg/ml 90% killing: 100 µg/mL
  MBC = μg/ml 99.9% killing: >100 µg/mL
[5]
  LD 90 = μg/ml 90% killing: 100 µg/mL
  MBC = μg/ml 99.9% killing: >100 µg/mL
[6]
  LD 90 = μg/ml 90% killing: >100 µg/mL
  MBC = μg/ml 99.9% killing: >100 µg/mL
[7]; control PC1: 0.02 μg rHuβD2, 2 h
  antmicrobial activity, bacterial killing [%]: 14.80 ± 2.78%
[7]; control PC2: 0.20 μg rHuβD2, 2 h
  antmicrobial activity, bacterial killing [%]: 32.38 ± 2.93%
[7]; control PC3: 2.00 μg rHuβD2, 2 h
  antmicrobial activity, bacterial killing [%]: 92.80 ± 3.91%
[7]; control PC4/ab: 10.00 μg rHuβD2 co-incubated with polyclonal anti-hβD2 antibodies, 2 h
  antmicrobial activity, bacterial killing [%]: 0%
[7]; control PC4: 10.00 μg rHuβD2, 2 h
  antmicrobial activity, bacterial killing [%]: 100%

Reference: patent US20110311601A1, “ANTIMICROBIAL MEDICAL DEVICES” (priority 2010, published 2011)
